Measured values reported in paper PMC8208785, “Therapeutic efficacy of novel memantine nitrate MN‐08 in animal models of Alzheimer’s disease” (Aging Cell, 2021).
Entries after “also recorded” stand apart in the source; their conditions may differ.

How the values were obtained:
3×Tg‐AD mice = experiment: Golgi staining of dendritic spines and Western blotting of synaptic markers in 3×Tg-AD mice; assay type: in vivo; conditions: donepezil 1.3 mg/kg
Experimental: Triple transgenic 3×Tg‐AD mice were acquired from Jackson Laboratory and fostered in the Shenzhen Center for Disease Control and Prevention (Shenzhen, China). Eight‐month‐old 3×Tg‐AD mice were categorized into six groups: (1) 3×Tg‐AD +Vehicle group; (2) 3×Tg‐AD +MN‐08 (3 mg/kg) group; (3) 3×Tg‐AD +MN‐08 (6 mg/kg) group; (4) 3×Tg‐AD +MN‐08 (12 mg/kg) group; (5) 3×Tg‐AD +Memantine (Mem, 5 mg/kg) group; (6) 3×Tg‐AD +Donepezil (Done, 1.3 mg/kg, once daily) group; (7) Eight‐month‐old B6129SF2/J mice as a control group. MN‐08 and memantine were given twice daily (Done, once daily) by gastric gavage for 4 months from 8 months of age.
Golgi staining was used to determine hippocampal dendritic spine density by a Rapid Golgi Stain Kit (FD Neurotechnologies, Columbia, MD, USA) according to the manufacturer’s instructions. The brain was removed after the behavioral tests and incubated with impregnation solution in the dark at room temperature for 1 week. Impregnation solution was replaced with solution A and stored in the dark for 3 days. Brain sections (100 μm thickness) were placed on gelatin-coated microscope slides and then immersed in ddH2O. Solution B, Solution C, 80 % ethanol and xylene were used for 10 min, sequentially. The dendritic spines of hippocampal neurons were analyzed and counted in a blinded manner from six sections per animal by light microscopy (Olympus, Tokyo, Japan).
Western blotting analysis was performed as previously described with minor modifications (Huang, Li, & Nan, 2017). Proteins were extracted from hippocampal tissue and their concentrations determined by the BCA protein assay kit (Fdbio science, Hangzhou, China). The protein (20 μg) was separated on a 12% SDS-PAGE gel and then transferred to PVDF membranes. The membranes were blocked using 5 % nonfat dry milk for 2 h. […] Quantitative analysis of protein bands was conducted by the Carestream system (Carestream Health, Inc, USA).

[1] = tested on: ERK and PI3K/Akt/GSK3β pathway; experiment: Western blotting of p-ERK, p-Akt, p-GSK3β and Bcl-2 in glutamate-challenged CGNs; assay type: cell-based, rat; conditions: LY294002 incubated with MN‐08
Text: To further characterize the neuroprotection of MN‐08, the level of the key signaling molecules, such as ERK, Akt, and GSK3β, was examined by Western blotting assay. […] Moreover, pre‐treatment with MN‐08 reversed expression of both p‐Akt and p‐GSK3β with the challenge of glutamate. Akt is an important downstream member of PI3K. To further confirm whether the PI3K/Akt pathway was associated with the neuroprotection of MN‐08 against glutamate‐induced excitotoxicity, specific PI3K inhibitor LY294002 was applied and incubated with MN‐08. […] Taken together, MN‐08 might protect against glutamate‐induce cytotoxicity by reversing the dysregulations of ERK pathway and PI3K/Akt/GSK3β pathway.
Western blotting analysis was performed as previously described with minor modifications (Huang, Li, & Nan, 2017). Proteins were extracted from hippocampal tissue and their concentrations determined by the BCA protein assay kit (Fdbio science, Hangzhou, China). The protein (20 μg) was separated on a 12% SDS-PAGE gel and then transferred to PVDF membranes. The membranes were blocked using 5 % nonfat dry milk for 2 h. The protein blots were incubated with the corresponding primary antibodies against p-Akt (#4060, 1:1000, Cell Signaling Technology), Akt (#4685, 1:1000, Cell Signaling Technology), BACE1 (#5606, 1:1000, Cell Signaling Technology), PS1 (#5643, 1:1000, Cell Signaling Technology), p-GSK3β (#5558, 1:1000, Cell Signaling Technology), GSK3β (#12456, 1:1000, Cell Signaling Technology), Bcl-2 (#3498, 1:1000, Cell Signaling Technology), Bax (#5023, 1:1000, Cell Signaling Technology), Cleaved caspase-3 (#9661, 1:1000, Cell Signaling Technology), Caspase-3 (#9662, 1:1000, Cell Signaling Technology), ADAM10 (#14194, 1:1000, Cell Signaling Technology), APP (#ab241592, 1:1000, Abcam), sAPPα (#ab126723, 1:1000, Abcam), NEP (#ab216341, 1:1000, Abcam), Synapsin I (#ab64581, 1:1000, Abcam), Synapsin II (#ab76494, 1:1000, Abcam), NR2A (#ab124913, 1:2000, Abcam), PSD95 (#ab18258, 1:1000, Abcam), Synaptophysin (#ab32127, 1:1000, Abcam), IDE (#ab133561, 1:1000, Abcam), Drebin (#ab178408, 1:1000, Abcam) and Tau-5 (#ab80579, 1:2000, Abcam) overnight at 4°C. After washing 3 times, the membranes were incubated with the respective HRP-conjugated secondary antibody. ECL Western blotting Detection Reagents (Fdbio science, Hangzhou, China) were used to perform Chemiluminescence detection. Quantitative analysis of protein bands was conducted by the Carestream system (Carestream Health, Inc, USA).
CGNs were prepared from the 8-day-old Sprague–Dawley rats as described in our previous publication (Li et al., 2005). Briefly, animals were anesthetized and sacrificed, and their cerebella were collected. Then, the freshly collected cerebella were rinsed in cold Kreb’s buffer-BSA and digested with 0.025 % trypsin incubated in a 37°C for 15 min. The reaction was stopped, and the single cell suspension was obtained through pipetting up and down the sedimentary tissue. CGNs were seeded in basal modified Eagle’s medium (ThermoFisher Scientific, Waltham, MA, USA) supplemented with 10 % fetal bovine serum, 25 mM KCl, 2 mM glutamine and 100 units/mL penicillin/streptomycin at a density of 1.5×10^6 cells/mL. Cytosine arabinoside (10 μM) was added to inhibit the growth of non-neuronal cells at 24 h after seeding. All experiments were carried out after 8 days in vitro. […]

[2] = tested on: cerebellar granule neurons (CGNs); experiment: MTT cell viability, glutamate-induced excitotoxicity in CGNs; assay type: cell-based, rat; conditions: LY294002 incubated with MN‐08
Experimental: Excessive glutamate‐induced excitotoxicity might cause dysfunctions of cellular pathways, subsequently resulting in synaptic dysfunctions and neuronal loss. To evaluate the neuroprotective effects of MN‐08 against excitotoxicity, cerebellar granule neurons (CGNs) were treated with MN‐08 at the concentrations from 1 to 50 µM or memantine from 1 to 10 μM for 2 h, and then exposed to 100 μM glutamate for 24 h. […] Similarly, in APP/PS1 mice, MN‐08 prevented neuronal loss in the hippocampus by upregulating the expression ratio of Bcl‐2/Bax and downregulating the expression ratio of cleaved Caspase‐3 to Caspase‐3 (Figure S6).
CGNs were prepared from the 8-day-old Sprague–Dawley rats as described in our previous publication (Li et al., 2005). Briefly, animals were anesthetized and sacrificed, and their cerebella were collected. […]
Neurotoxicity was assessed using the tetrazolium salt 3-(4,5-dimethylthiazol-2-yl)-2,5- diphenyltetrazolium bromide dye (MTT) assay as previous publication (Luo et al., 2010). […] Cell viability was evaluated by observing colorimetric changes using a CLARIOstar plus Microplate Reader (BMG Labtech, Ortenberg, Germany) at a test wavelength of 570 nm with 655 nm as a reference wavelength. Data were expressed as a percentage of control cultures.

Compound	reduction of dendritic spines (hippocampus CA1, Golgi staining) (3×Tg‐AD mice)	effect of LY294002 on upregulation of p‐Akt and p‐GSK3β by MN‐08 [1]	effect of LY294002 on the neuroprotective effects of MN‐08 against glutamate (MTT) [2]
COc1cc2c(cc1OC)C(=O)C(CC1CCN(Cc3ccccc3)CC1)C2 (stereo not drawn) [donepezil, reference compound]	markedly reversed		
O=c1cc(N2CCOCC2)oc2c(-c3ccccc3)cccc12 [LY294002]		significantly abolished	canceled; also recorded: partially abolished
